Reference: patent publication US11497736B2, “Compositions for an orally active 1,2,4-oxadiazole for the treatment of disease” (PTC Therapeutics, Inc., priority 2005, dated 2022)

Assays:
Type in all cases: in vivo, human
CFTR = assay: Transepithelial potential difference (TEPD) chloride conductance, Phase 2 study in nonsense-mutation-mediated cystic fibrosis; details: for Mean change in TEPD chloride conductance: 15 CF patients; for Number of patients with improvement in TEPD chloride conductance to normal / Number of patients with ≥−5 mV improvement in TEPD chloride conductance: patients/total
Procedure: The measurement of transepithelial potential difference (TEPD), also known as nasal potential difference, provides a sensitive evaluation of sodium and chloride transport directly in secretory epithelial cells via assessment of transepithelial bioelectric properties (Knowles et al., 1981, N. Engl. J. Med. 305(25):1489-95; Knowles et al., 1995, Hum. Gene Ther. 6:445). TEPD is performed in each nostril using standardized techniques (Standaert et al., 2004, Ped. Pulm. 37:385-92). In the procedure, a small plastic catheter is used to assess electrical differences across the outer cell membrane of nasal mucosa cells in the nostril. TEPD values are expressed in millivolts, or mV. A chloride conductance equal to or more electrically negative than −5.0 mV is generally considered to be in the normal range. […] TEPD assessments can also be made on rectal epithelial cells and lower respiratory epithelial cells. Because of the role of the CFTR protein in transporting chloride ions across cell membranes, and because of the absence of this protein, cystic fibrosis patients have an abnormal TEPD chloride conductance. As an endpoint, TEPD has the advantage that it can detect chloride transport changes that are a quantitative integration of the presence, functional activity, and apical location of the CFTR in airway cells. Furthermore, it is a direct measure of CFTR activity that is not likely to be affected by supportive or palliative treatments for CF (with the possible exception of systemically administered aminoglycoside antibiotics). Of importance is evidence that TEPD values can correlate with the degree of pulmonary dysfunction and radiographic abnormality (Ho et al., 1997, Eur. Respir. J. 10(9):2018-22; Fajac et al., 1998, Eur. Respir. J 12(6):1295-300; Sermet-Gaudelus et al., 2005, Am. J. Respit. Crit. Care Med. 171(9):1026-1031). […] Under baseline conditions, TEPD-assessed chloride channel activity is very unlikely to normalize spontaneously in patients with CF; any observed improvements in TEPD-assessed chloride channel activity are expected to specifically denote pharmacological activity of CFTR-correcting therapies. Accordingly, it has become the primary endpoint in Phase 1-2 pharmacological and gene replacement studies aimed at correcting CFTR dysfunction (Peckham et al., 1995, AJ. Clin Sci (London). 89(3):277-84; Wilschanski et al., 2003, N. Engl. J Med. 349(15):1433-41).
(§1) 3-[5-(2-Fluoro-phenyl)-[1,2,4]oxadiazol-3-yl]-benzoic acid was provided in a formulation described herein.
(§2) Clinical endpoints were evaluated using the procedures set forth above. TEPD measurements were made prior to treatment and on days 14 and 28 of Cycle 1 and Cycle 2. Nasal mucosal curettage was collected from each nostril of each patient prior to treatment and on days 14 and 28 of Cycle 1 and Cycle 2. Pulmonary tests, including FEV1, FVC and MEF25-75, were measured prior to treatment, on day −1 of Cycle 2, on day 13 or 14 of Cycle 1 and day 13 or 14 of Cycle 2 in the study being conducted in Israel and the same parameters were measured prior to treatment and on day 13 or 14 of Cycle 2 in the study being conducted in the United States.
This is the average of the changes from the beginning to the end of the treatment period in TEPD chloride conductance within each study participant. For example, if the changes in TEPD chloride conductance within each of three participants were −7.0 mV, −2.0 mV and −9.0 mV, the mean change in TEPD chloride conductance among these participants would be −6.0 mV.
For purposes of the trials, a chloride conductance response is defined as a TEPD chloride conductance improvement of at least −5 mV. For example, in a patient with a TEPD chloride conductance value of +1.0 mV at baseline and a TEPD chloride conductance value of −6.0 mV at the end of treatment, the TEPD chloride conductance improvement would be −7.0 mV, representing a chloride conductance response. […]

[1] = Pulmonary function tests (FEV1, FVC) by spirometry, Phase 2 cystic fibrosis study
Procedure: Pulmonary function tests, including FEV1, FVC, and MEF25-75, are measured using standard spirometry procedures. Assessments of pulmonary function (including MEF25-75, FVC, and, particularly, FEV1) have been acknowledged as definitive clinical endpoints in patients with CF (Food and Drug Administration, 62nd Anti-Infective Drugs Advisory Committee. Discussion of NDA for tobramycin solution for inhalation (Tobi®) for the management of cystic fibrosis patients. November, 1997; Tiddens, 2002, Pediatr. Pulmonol. 34(3): 228-31). […] Pulmonary function testing is simple to administer (even in patients as young as 7 years of age), and uses standardized equipment and techniques that are widely available. Interpretation is performed using well-established normative equations that account for patient age, height, and gender.
as §1, §2
(§3) Statistically significant results and positive trends for secondary endpoints were also observed. In particular, although the trials were not been powered to detect statistical significant changes in secondary endpoints, statistically significant improvements from study entry to the end of the higher-dose treatment cycle in the patients' mean FEV1, FVC and weight were observed.

[2] = Patient-reported changes in cystic fibrosis symptoms, asked by trial investigators; details: of the 15 patients in the interim analysis
Description: as §1
In addition, although changes in patient's symptoms were not formally measured through the use of a quality-of-life questionnaire, trial investigators were requested to ask about changes in patients' cystic fibrosis symptoms. In the 15 patients included in the interim analysis, 6 reported general improvements in well being, 6 reported decrease in cough and 10 reported decreased mucus thickness and easier clearing of mucus.

[3] = Body weight, Phase 2 cystic fibrosis study
Description: as §1, §3

[4] = Best of nostrils, higher dose level
[5] = Best of nostrils, lower dose level
[6] = Mean of both nostrils, higher dose level
[7] = Mean of both nostrils, lower dose level
[8] = Change from study entry to end of higher dose treatment

Compound: O=C(O)c1cccc(-c2noc(-c3ccccc3F)n2)c1 [3-[5-(2-Fluoro-phenyl)-[1,2,4]oxadiazol-3-yl]-benzoic acid]
- Number of patients with improvement in TEPD chloride conductance to normal (percentage) (CFTR; [4]): (53%)
- Number of patients with ≥−5 mV improvement in TEPD chloride conductance (percentage) (CFTR; [4]): (53%)
- Mean change in TEPD chloride conductance (CFTR; Best of nostrils, higher dose level (10, 10, 20 mg/kg TID oral, 14 days)): −6.4 mV
- Number of patients with improvement in TEPD chloride conductance to normal (CFTR; [4]): 8/15
- Number of patients with ≥−5 mV improvement in TEPD chloride conductance (CFTR; [4]): 8/15
- Number of patients with improvement in TEPD chloride conductance to normal (percentage) (CFTR; [5]): (53%)
- Number of patients with ≥−5 mV improvement in TEPD chloride conductance (percentage) (CFTR; [5]): (60%)
- Mean change in TEPD chloride conductance (CFTR; Best of nostrils, lower dose level (4, 4, 8 mg/kg TID oral, 14 days)): −9.0 mV
- Number of patients with improvement in TEPD chloride conductance to normal (CFTR; [5]): 8/15
- Number of patients with ≥−5 mV improvement in TEPD chloride conductance (CFTR; [5]): 9/15
- Number of patients with improvement in TEPD chloride conductance to normal (percentage) (CFTR; [6]): (47%)
- Number of patients with ≥−5 mV improvement in TEPD chloride conductance (percentage) (CFTR; [6]): (47%)
- Mean change in TEPD chloride conductance (CFTR; Mean of both nostrils, higher dose level (10, 10, 20 mg/kg TID oral, 14 days)): −4.4 mV
- Number of patients with improvement in TEPD chloride conductance to normal (CFTR; [6]): 7/15
- Number of patients with ≥−5 mV improvement in TEPD chloride conductance (CFTR; [6]): 7/15
- Number of patients with improvement in TEPD chloride conductance to normal (percentage) (CFTR; [7]): (40%)
- Number of patients with ≥−5 mV improvement in TEPD chloride conductance (percentage) (CFTR; [7]): (40%)
- Mean change in TEPD chloride conductance (CFTR; Mean of both nostrils, lower dose level (4, 4, 8 mg/kg TID oral, 14 days)): −6.7 mV
- Number of patients with improvement in TEPD chloride conductance to normal (CFTR; [7]): 6/15
- Number of patients with ≥−5 mV improvement in TEPD chloride conductance (CFTR; [7]): 6/15
- Mean FEV1 change (percentage of normal for gender, age and height) [1, 8]: 3.3%
- Mean FVC change (percentage of normal for gender, age and height) [1, 8]: 4.9%
- Mean FEV1 (percentage of normal for gender, age and height) ([1]; End of higher dose treatment, study entry 65.8%): 69.1%
- Mean FVC (percentage of normal for gender, age and height) ([1]; End of higher dose treatment, study entry 80.2%): 85.1%
- Patients who reported decrease in cough [2]: 6
- Patients who reported decreased mucus thickness and easier clearing of mucus [2]: 10
- Patients who reported general improvements in well being [2]: 6
- Weight change [3, 8]: 0.7 kg
- Weight ([3]; End of higher dose treatment, study entry 58.3 kg): 59.0 kg
